Laboratory results reported in article PMC11910330, “Familial Alzheimer’s disease mutations in amyloid precursor protein impair calcineurin signaling to NMDA receptors” (The Journal of Biological Chemistry, 2024).

Test system: GluN1A/GluN2A NMDARs
Assay: Whole-cell recording of glutamate-evoked NMDAR currents in HEK 293 cells expressing GluN1A/GluN2A
Assay type: cell-based
Procedure: HEK 293 cells (ATCC Cat# CRL-1573) were obtained at passage 37 and used for a maximum of six passages. Cell cultures were maintained in Dulbecco’s modified Eagle’s medium (DMEM) with 10% fetal bovine serum (Life Technologies, Inc.) and penicillin/streptomycin (P/S). For electrophysiology, cells were plated at low density (∼50,000 cells/ml) on 15-mm round glass coverslips in 12-well plates. Cells were transfected using the Ca^2+ phosphate method with 1 μg of each construct per coverslip. For control cells, 0.3 μg of pEGFP (GenBank U55762.1) was included as a transfection marker. Epifluorescence was used to confirm the expression of the corresponding APP family members and APP FAD mutants. For biochemistry, HEK 293 cells were plated at ∼50% confluence on 10 cm dishes. HEK 293 cells were transfected by the Ca^2+ phosphate method. For these experiments, 4 μg of each construct was used, with 1 μg of mCherry (GenBank AY678264.1) used as a transfection marker. Experiments were performed 24 h after transfection.
Twenty-four hours after transfection, HEK 293 cells were visually selected for recording by GFP epifluorescence. […] whole-cell recordings of NMDA receptor currents were obtained with a Multiclamp 700A amplifier (Molecular Devices) and digitized through a Digidata 1332A using Clampex 10.3 software. Patch pipettes (2–5 MΩ for HEK 293 cells; 3–6 MΩ for neurons) contained (in mM) the following: 140 Cs methanesulfonate, 10 Hepes, five ATP (Na salt), 5 MgCl2, and 0.2 EGTA + 0.01 CaCl2 or 10 BAPTA + 0.2 CaCl2 (pH 7.4). QX-314 (2 mM) was included in the pipette solution for neuronal recordings to ensure the block of voltage-gated Na^+ currents. The extracellular solution contained (in mM) 150 NaCl, 5 KCl, 1.8 CaCl2, 10 Hepes, 11.1 glucose, 0.1 glycine (pH 7.4) and flowed at a rate of 1 to 2 ml/min. For neuronal recordings, this solution was supplemented with tetrodotoxin (0.3 μM), NBQX (10 μM), and picrotoxin (100 μM), to block voltage-gated Na^+ channels, AMPA receptors, and GABA receptors, respectively. HEK cells were lifted from the coverslip after establishment of the whole-cell configuration, to speed solution exchange, and placed ∼20 μm from the mouth of a series of flow pipes, which were controlled by solenoid valves and moved into position by a piezoelectric bimorph. With this configuration, solution exchanges were accomplished within 10 to 12 ms as assessed by the rise time (20–80%) of whole-cell agonist-evoked current responses. Flow pipes were lowered to within ∼50 μm of the surface of the coverslip and placed ∼100 to 150 μm from the soma of the cell. Currents were digitized at 2 kHz and filtered at 1 kHz. Series resistance (90–95% HEK cells; 60–70% neurons) and whole-cell capacitance compensation were employed, and input resistance was routinely monitored by 5 mV hyperpolarizing jumps between agonist applications. Cells showing sudden shifts in these parameters were discarded. Experiments were performed at a holding potential of −60 mV at 20 °C. Currents were elicited by a 3 s (5 s for neurons) application of glutamate (1 mM) in the extracellular recording solution. Desensitization was quantified as the ratio of average current remaining in the last 50 ms of the agonist application to the peak current using Clampfit 10.3 software. […] Current density was calculated by dividing the peak current by the compensated whole-cell capacitance.

Compound | effect on NMDAR desensitization (in words) (CsA 1 μM, GFP-expressing cells, relative to untreated cells) | ss/p ratio in APP-expressing cells (in words) (CsA 1 μM, low intracellular EGTA) | effect on NMDAR current amplitude (in words) (10 mM BAPTA in pipette, APP-expressing cells, within 1–3 min) | effect on NMDAR desensitization (in words) (10 mM BAPTA in pipette, GFP controls and APP-expressing cells) | effect on NMDAR current amplitude (in words) (10 mM BAPTA in pipette, GFP-expressing cells)
cyclosporin A [CsA] | desensitization appeared modestly enhanced | no longer different (and modestly elevated) compared to GFP-expressing cells |  |  | 
O=C(O)CN(CC(=O)O)c1ccccc1OCCOc1ccccc1N(CC(=O)O)CC(=O)O [BAPTA] |  |  | increase in the amplitude of GluN1A/GluN2A currents | did not appear to modify the degree of NMDAR desensitization | declined in amplitude by a similar extent to that seen with low EGTA concentrations
